These results are taken from US8993622B2, “Antiviral compounds” (Eirium AB, priority 2010, dated 2015).

One assay has as its system RCAd11pGFP vector. Put plainly: Screening assay: GFP expression from RCAd11pGFP vector in K562 cells. The class given is cell-based. The note with it: Human adenovirus sp., K562, 24 h, read-out: 50% inhibitory concentration (IC50), inhibition of GFP expression. The text has this:
The screening assay is based on GFP expression from the RCAd11pGFP vector in a K562 cell system. […] To be considered as a potential hit, the compound had to decrease the intensity of fluorescence by more than 80% and kill no more than 50% of the cells. […] None of the compounds selected for further study were autofluorescent.
To verify the hits and to exclude false positives, the compounds were serially diluted in 7 steps for dose-response analysis using the screening assay. […] Twenty-four compounds met these criteria. The distribution of fluorescence inhibition and cellular toxicity detected in the screening process of these 24 hits is summarized in FIG. 1. One of the most efficient and least toxic compounds was A02, 2-[[2-(benzoylamino)benzoyl]amino]-benzoic acid. This compound was evaluated further as a potential drug candidate.

In a further assay the test system is Ad41 (F). Put plainly: Quantitative real-time PCR of adenovirus DNA replication in A549 cells (Ad41). The class given is cell-based. To be noted: Human adenovirus sp., read-out: % inhibition of DNA replication (SD). Here is the method:
Approximately 1×10^5 A549 cells were seeded in 24-well plates (Nunc) on the day before infection. On the day of infection, the cells in one well were counted to establish the amount of virions to be added. The growth medium was removed and compound and virus were added simultaneously to the cells in 700 μl DMEM with 0.75 g/l NaHCO3, 20 mM HEPES, 1×PEST, and 1% FBS. Compounds were added in concentrations ranging from 0.5 μM to 15 μM. The final concentration of DMSO was less than 1% in all samples. One pg of Ad virions was added per cell. The plate was incubated at 37° C. in 5% CO2 and 24 h after infection the cells were harvested, washed once, and resuspended in PBS. […] The design of primers and probes for analysis of various Ad types representing different adenovirus species with quantitative PCR has been described previously (Allard et al. 2001. Rapid typing of human adenoviruses by a general PCR combined with restriction endonuclease analysis. Journal Clinical Microbiology 39:498-505). Briefly, quantitative real-time PCR was carried out using a degenerate primer pair, Kadgen1 (forward)—Kadgen 2 (reverse) (5′-CWT ACA TGC ACA TCK CSG G-3′—SEQ ID NO:1, and 5′-CRC GGG CRA AYT GCA CCA G-3′—SEQ ID NO:2, respectively); DNA technology A/S, Aarhus, Denmark). […] Real-time PCR was performed in an ABI PRISM 7700 Sequence Detector (Applied Biosystems) and analyzed with Sequence Detector v1.7a software.

For a further assay, the target named is T1, Tn5 transponase (Escherichia coli, UniProt Q46731).
T1 sequence (Q46731 1-476): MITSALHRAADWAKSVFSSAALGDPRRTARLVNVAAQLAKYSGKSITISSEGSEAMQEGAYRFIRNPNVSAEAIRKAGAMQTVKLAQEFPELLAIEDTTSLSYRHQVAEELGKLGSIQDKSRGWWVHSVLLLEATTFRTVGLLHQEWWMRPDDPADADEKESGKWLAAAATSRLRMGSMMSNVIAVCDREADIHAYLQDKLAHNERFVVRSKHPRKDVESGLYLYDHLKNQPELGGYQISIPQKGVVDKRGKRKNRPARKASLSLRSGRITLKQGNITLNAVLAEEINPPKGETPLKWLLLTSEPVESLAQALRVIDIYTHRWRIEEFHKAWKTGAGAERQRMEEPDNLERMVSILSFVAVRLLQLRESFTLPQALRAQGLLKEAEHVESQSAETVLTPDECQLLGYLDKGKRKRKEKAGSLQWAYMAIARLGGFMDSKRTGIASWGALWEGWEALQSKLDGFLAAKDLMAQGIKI
The note with it: US 2006/0035245; cited from earlier work.

Another assay deals with HIV integrase (Human immunodeficiency virus type 1 group M subtype B, UniProt P04585). The note with it: US 2006/0035245; cited from earlier work.

Consider `O=C(Nc1ccccc1C(=O)Nc1ccccc1C(=O)O)c1ccccc1` [Compound A02, 2-[[2-(Benzoylamino)benzoyl]amino]-benzoic acid], for which the IC50 with RCAd11pGFP vector was found to be 28.6 µM. Further, the inhibition at 5 µM in the assay with Ad41 (F) (5 μM) turned out to be 80%. The inhibition at 15 µM in the assay with Ad41 (F) (15 μM) is 88%. Further, the “inhibition of Tn5 transponase” value at Tn5 transponase was “found to inhibit”. On HIV integrase, the “inhibition of HIV integrase” value is “failed to inhibit”.
